Experimental data reported in ChEMBL document CHEMBL1201862, “PubChem BioAssay data set” (2004).
Several values for one entry are separate records, joined by “and”; a condition that tells them apart may be missing. Equal entries are not always repeated.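 The compound was tested at five concentrations on cells cultured in 96-well plates, with a 48-hour exposure period. Here, GI50 denotes the concentration required for 50% inhibition of growth.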 Activity calls are given as the source filed them. No stated cut-off is given here; in the data, active = GI50 up to about 1.1 µM and inactive = higher.

Legend:
Experiment in all cases: DTP human tumour cell line panel, 48 h
786-0 = tested on: 786-0
A498 = tested on: A498
A549 = tested on: A549
ACHN = tested on: ACHN
BT-549 = tested on: BT-549
CAKI-1 = tested on: CAKI-1
CCRF-CEM = tested on: CCRF-CEM
EKVX = tested on: EKVX
HCC 2998 = tested on: HCC 2998
HCT-116 = tested on: HCT-116
HCT-15 = tested on: HCT-15
HL-60 = tested on: HL-60
HOP-62 = tested on: HOP-62
HOP-92 = tested on: HOP-92
HT-29 = tested on: HT-29
Hs-578T = tested on: Hs-578T
IGROV-1 = tested on: IGROV-1
KM12 = tested on: KM12
LOX IMVI = tested on: LOX IMVI
M14 = tested on: M14
MCF7 = tested on: MCF7
MDA-MB-231 = tested on: MDA-MB-231
MDA-MB-435 = tested on: MDA-MB-435
MDA-N = tested on: MDA-N
MOLT-4 = tested on: MOLT-4
Malme-3M = tested on: Malme-3M
NCI-H226 = tested on: NCI-H226
NCI-H23 = tested on: NCI-H23
NCI-H460 = tested on: NCI-H460
NCI-H522 = tested on: NCI-H522
NCI/ADR-RES = tested on: NCI/ADR-RES
OVCAR-3 = tested on: OVCAR-3
OVCAR-4 = tested on: OVCAR-4
OVCAR-5 = tested on: OVCAR-5
OVCAR-8 = tested on: OVCAR-8
PC-3 = tested on: PC-3
RPMI-8226 = tested on: RPMI-8226
RXF 393 = tested on: RXF 393
SF-268 = tested on: SF-268
SF-295 = tested on: SF-295
SF-539 = tested on: SF-539
SK-MEL-28 = tested on: SK-MEL-28
SK-MEL-2 = tested on: SK-MEL-2
SK-MEL-5 = tested on: SK-MEL-5
SK-OV-3 = tested on: SK-OV-3
SN12C = tested on: SN12C
SNB-75 = tested on: SNB-75
SW-620 = tested on: SW-620
T47D = tested on: T47D
TK-10 = tested on: TK-10
U-251 = tested on: U-251
UACC-257 = tested on: UACC-257
UACC-62 = tested on: UACC-62
UO-31 = tested on: UO-31
COLO 205 = tested on: COLO 205
DU-145 = tested on: DU-145
K562 = tested on: K562
SNB-19 = tested on: SNB-19
SR = tested on: SR

For N#Cc1ccccc1NC(=O)/C(=N\NC(=O)c1ccncc1)C(c1cnc2ccc([N+](=O)[O-])cc2n1)[N+](=O)[O-] (centres undefined), the GI50 (786-0) was > 100 µM (inactive), the GI50 (A498) was > 100 µM (inactive) and the GI50 (A549) was 97.9 µM (inactive). For the same molecule, the GI50 (ACHN) was 28 µM (inactive), the GI50 (BT-549) was > 100 µM (inactive) and the GI50 (CAKI-1) was > 100 µM (inactive). For the same molecule, the GI50 (CCRF-CEM) was 56.4 µM (inactive), the GI50 (EKVX) was 53.1 µM (inactive) and the GI50 (HCC 2998) was > 100 µM (inactive). The GI50 (HCT-116) was > 100 µM (inactive), the GI50 (HCT-15) was 78.3 µM and the GI50 (HL-60) was > 100 µM (inactive). For the same molecule, the GI50 (HOP-62) was > 100 µM (inactive), the GI50 (HOP-92) was 86.9 µM (inactive) and the GI50 (HT-29) was > 100 µM (inactive). For the same molecule, the GI50 (Hs-578T) was > 100 µM (inactive), the GI50 (IGROV-1) was 95.9 µM (inactive) and the GI50 (KM12) was 39.9 µM (inactive). For the same molecule, the GI50 (LOX IMVI) was 84.5 µM (inactive), the GI50 (M14) was 67.6 µM (inactive) and the GI50 (MCF7) was 80.2 µM (inactive). The GI50 (MDA-MB-231) was > 100 µM (inactive), the GI50 (MDA-MB-435) was 74.8 µM (inactive) and the GI50 (MDA-N) was > 100 µM (inactive). The GI50 (MOLT-4) was 80 µM (inactive), the GI50 (Malme-3M) was > 100 µM (inactive) and the GI50 (NCI-H226) was > 100 µM (inactive). For the same molecule, the GI50 (NCI-H23) was > 100 µM (inactive), the GI50 (NCI-H460) was 64.6 µM (inactive) and the GI50 (NCI-H522) was 33 µM (inactive). The GI50 (NCI/ADR-RES) was > 100 µM (inactive), the GI50 (OVCAR-3) was > 100 µM (inactive) and the GI50 (OVCAR-4) was > 100 µM (inactive). For the same molecule, the GI50 (OVCAR-5) was > 100 µM (inactive), the GI50 (OVCAR-8) was > 100 µM (inactive) and the GI50 (PC-3) was > 100 µM (inactive). For the same molecule, the GI50 (RPMI-8226) was 49 µM (inactive), the GI50 (RXF 393) was > 100 µM (inactive) and the GI50 (SF-268) was > 100 µM (inactive). The GI50 (SF-295) was > 100 µM (inactive), the GI50 (SF-539) was > 100 µM (inactive) and the GI50 (SK-MEL-28) was > 100 µM (inactive). The GI50 (SK-MEL-2) was > 100 µM (inactive), the GI50 (SK-MEL-5) was 63.7 µM (inactive) and the GI50 (SK-OV-3) was > 100 µM (inactive). For the same molecule, the GI50 (SN12C) was > 100 µM (inactive), the GI50 (SNB-75) was > 100 µM (inactive) and the GI50 (SW-620) was > 100 µM (inactive). The GI50 (T47D) was > 100 µM (inactive), the GI50 (TK-10) was > 100 µM (inactive) and the GI50 (U-251) was > 100 µM (inactive). The GI50 (UACC-257) was > 100 µM (inactive), the GI50 (UACC-62) was > 100 µM (inactive) and the GI50 (UO-31) was 32.1 µM (inactive).

In the case of Cc1ccc(O)c(-c2csc(NCN3CCN(CNc4nc(-c5cc(C)ccc5O)cs4)CC3)n2)c1, the GI50 (786-0) is reported as > 100 µM (inactive), the GI50 (A498) is reported as > 100 µM (inactive) and the GI50 (A549) is reported as > 100 µM (inactive). For the same molecule, the GI50 (ACHN) was > 100 µM (inactive), the GI50 (BT-549) was > 100 µM (inactive) and the GI50 (CAKI-1) was > 100 µM (inactive). For the same molecule, the GI50 (CCRF-CEM) was 20.5 µM (inactive), the GI50 (COLO 205) was > 100 µM (inactive) and the GI50 (DU-145) was > 100 µM (inactive). The GI50 (EKVX) was > 100 µM (inactive), the GI50 (HCC 2998) was > 100 µM (inactive) and the GI50 (HCT-116) was > 100 µM (inactive). The GI50 (HCT-15) was > 100 µM, the GI50 (HL-60) was > 100 µM (inactive) and the GI50 (HOP-62) was > 100 µM (inactive). For the same molecule, the GI50 (HOP-92) was > 100 µM (inactive), the GI50 (HT-29) was > 100 µM (inactive) and the GI50 (Hs-578T) was > 100 µM (inactive). For the same molecule, the GI50 (IGROV-1) was > 100 µM (inactive), the GI50 (K562) was > 100 µM (inactive) and the GI50 (KM12) was > 100 µM (inactive). For the same molecule, the GI50 (LOX IMVI) was > 100 µM (inactive), the GI50 (M14) was > 100 µM (inactive) and the GI50 (MCF7) was > 100 µM (inactive). For the same molecule, the GI50 (MDA-MB-231) was > 100 µM (inactive), the GI50 (MDA-MB-435) was > 100 µM (inactive) and the GI50 (MDA-N) was > 100 µM (inactive). The GI50 (MOLT-4) was 15.2 µM (inactive), the GI50 (Malme-3M) was > 100 µM (inactive) and the GI50 (NCI-H226) was > 100 µM (inactive). For the same molecule, the GI50 (NCI-H23) was > 100 µM (inactive), the GI50 (NCI-H460) was > 100 µM (inactive) and the GI50 (NCI-H522) was > 100 µM (inactive). For the same molecule, the GI50 (NCI/ADR-RES) was > 100 µM (inactive), the GI50 (OVCAR-3) was > 100 µM (inactive) and the GI50 (OVCAR-4) was > 100 µM (inactive). The GI50 (OVCAR-5) was > 100 µM (inactive), the GI50 (OVCAR-8) was > 100 µM (inactive) and the GI50 (PC-3) was > 100 µM (inactive). For the same molecule, the GI50 (RPMI-8226) was 25.2 µM (inactive), the GI50 (RXF 393) was > 100 µM (inactive) and the GI50 (SF-268) was > 100 µM (inactive). For the same molecule, the GI50 (SF-295) was > 100 µM (inactive), the GI50 (SF-539) was > 100 µM (inactive) and the GI50 (SK-MEL-28) was > 100 µM (inactive). For the same molecule, the GI50 (SK-MEL-2) was > 100 µM (inactive), the GI50 (SK-MEL-5) was > 100 µM (inactive) and the GI50 (SK-OV-3) was > 100 µM (inactive). The GI50 (SN12C) was > 100 µM (inactive), the GI50 (SNB-19) was > 100 µM (inactive) and the GI50 (SNB-75) was > 100 µM (inactive). For the same molecule, the GI50 (SR) was > 100 µM (inactive), the GI50 (SW-620) was 77.3 µM (inactive) and the GI50 (TK-10) was > 100 µM (inactive). For the same molecule, the GI50 (U-251) was > 100 µM (inactive), the GI50 (UACC-257) was > 100 µM (inactive) and the GI50 (UACC-62) was > 100 µM (inactive). For the same molecule, the GI50 (UO-31) was > 100 µM (inactive).

O=[N+]([O-])c1ccccc1CSc1nc(O)c2nc[nH]c2n1 was tested, and the GI50 (786-0) was > 100 µM (inactive), the GI50 (A498) was > 100 µM (inactive) and the GI50 (A549) was > 100 µM (inactive). The GI50 (ACHN) was > 100 µM (inactive), the GI50 (BT-549) was > 100 µM (inactive) and the GI50 (CAKI-1) was 90.4 µM (inactive). The GI50 (COLO 205) was > 100 µM (inactive), the GI50 (DU-145) was > 100 µM (inactive) and the GI50 (EKVX) was 51.8 µM (inactive). The GI50 (HCT-116) was > 100 µM (inactive), the GI50 (HCT-15) was > 100 µM and the GI50 (HL-60) was 78.2 µM (inactive). The GI50 (HOP-62) was > 100 µM (inactive), the GI50 (HOP-92) was > 100 µM (inactive) and the GI50 (HT-29) was 72.6 µM (inactive). The GI50 (Hs-578T) was 52.4 µM (inactive), the GI50 (IGROV-1) was > 100 µM (inactive) and the GI50 (K562) was > 100 µM (inactive). The GI50 (KM12) was > 100 µM (inactive), the GI50 (LOX IMVI) was > 100 µM (inactive) and the GI50 (M14) was 61.9 µM (inactive). The GI50 (MCF7) was > 100 µM (inactive) and > 99.3 µM (inactive), the GI50 (MDA-MB-435) was > 100 µM (inactive) and 55 µM (inactive) and the GI50 (MDA-N) was > 100 µM (inactive). The GI50 (MOLT-4) was > 100 µM (inactive), the GI50 (Malme-3M) was > 100 µM (inactive) and the GI50 (NCI-H23) was > 100 µM (inactive). The GI50 (NCI-H460) was > 100 µM (inactive), the GI50 (NCI-H522) was > 100 µM (inactive) and 58.7 µM (inactive) and the GI50 (NCI/ADR-RES) was > 100 µM (inactive). The GI50 (OVCAR-3) was > 100 µM (inactive), the GI50 (OVCAR-5) was > 100 µM (inactive) and 92 µM (inactive) and the GI50 (OVCAR-8) was > 100 µM (inactive). For the same molecule, the GI50 (PC-3) was 79.8 µM (inactive), the GI50 (RPMI-8226) was > 100 µM (inactive) and 89.3 µM (inactive) and the GI50 (RXF 393) was > 100 µM (inactive). The GI50 (SF-268) was > 100 µM (inactive), the GI50 (SF-295) was > 100 µM (inactive) and 99.8 µM (inactive) and the GI50 (SF-539) was > 100 µM (inactive). For the same molecule, the GI50 (SK-MEL-28) was > 100 µM (inactive), the GI50 (SK-MEL-2) was > 100 µM (inactive) and the GI50 (SK-MEL-5) was > 100 µM (inactive). For the same molecule, the GI50 (SK-OV-3) was 63.8 µM (inactive), the GI50 (SN12C) was > 100 µM (inactive) and 66.4 µM (inactive) and the GI50 (SNB-19) was 59.8 µM (inactive). For the same molecule, the GI50 (SR) was > 100 µM (inactive), the GI50 (SW-620) was > 100 µM (inactive) and the GI50 (T47D) was > 100 µM (inactive) and 75.7 µM (inactive). For the same molecule, the GI50 (TK-10) was > 100 µM (inactive) and 79.8 µM (inactive), the GI50 (U-251) was > 100 µM (inactive) and 96.4 µM (inactive) and the GI50 (UACC-257) was 81.3 µM (inactive). The GI50 (UACC-62) was > 100 µM (inactive) and 88.1 µM (inactive).
